{
  "source": "patent US12433870B2",
  "about": "“Supramolecular photoprotection of a photosensitizer” (Northwestern University, priority 2019, dated 2025)",
  "key": {"[1]": {"experiment": "Solubility in water / PBS buffer", "format": "physicochemical"}, "[2]": {"experiment": "Detection of singlet oxygen (ADPA chemical method, methylene blue reference)", "format": "physicochemical", "details": "20 μM, 630 nm, 50 mW, 20 min", "method": "Singlet oxygen (^1O2) quantum-yield measurements were conducted by a chemical method. The disodium salt of 9.10-anthracenedipropionic acid (ADPA) was used as singlet oxygen detection reagent with methylene blue used as a reference (Φt=0.53). In this experiment, ADPA (0.1 μmol) was added to the H2O solution of ExBox^4+⊃DPP (20 μM) with a laser irradiation (630 nm, 50 mW) for 20 min, followed by quantification of ^1O2 by the absorbance intensity change (UV-3600 Shimadzu spectrophotometer) at 380 nm of ADPA. The calculation of ^1O2 quantum yield is based on the equality ΦΔ=(ΔAs/[…])Φr. ΔAs is the absorption change of detected photosensitizer, ΔAr is the absorption change of referenced photosensitizer and Φ^r is the quantum yield of singlet oxygen of referenced photosensitizer (methylene blue).\n(§1) ADPA (0.1 μmol) was added to the H2O solution of DPPH2^+ (20 μM) with a laser irradiation (630 nm, 50 mW) for 20 min, followed by quantification of the ^1O2 by the absorbance intensity change (UV-3600 Shimadzu spectrophotometer) at 380 nm of ADPA. The calculation of the ^1O2 quantum yield is based on the equality ΦΔ=(ΔAs/ΔAr)Φr where ΔAs is the absorption change of detected photosensitizer, ΔAr is the absorption change of referenced photosensitizer and Φr is the quantum yield of singlet oxygen of referenced photosensitizer (methylene blue). Measured ^1O2 quantum yield of DPPH2^2+ is 0.38 in H2O.\nas §1, with “acetone” for “H2O”, “DPP” for “DPPH2^+”, “DPP” for “DPPH2^2+”, “0.43” for “0.38”, “acetone.” for “H2O.”"}, "A2780 cells [3]": {"test_system": "A2780 cells", "experiment": "In vitro PDT efficacy, MTT assay after visible light irradiation", "format": "cell-based, human", "details": "10 μM PBS solution, light dose 0.078 J cm^−2", "method": "A2780 cells (human ovarian cancer cell line) and MCF-7 cells (human breast adenocarcinoma cell line) obtained from Sigma-Aldrich and American Type Culture Collection (ATCC, Rockville, MD, USA), respectively were utilized for cell culture experiments. These cells were cultured in Dulbecco's Modified Eagle's Medium (DMEM) supplemented with 10% fetal bovine serum (FBS), penicillin (100 IU/mL) and streptomycin (100 μg/mL) at 37° C. in the presence of air (95%) and CO2 (5%).\nA2780 or MCF-7 cells (2×10^5 cells/mL, 100 μL) were seeded in each well of a black 96-well plate. Stock solution of ExBox^4+⊃DPP in PBS (1 mM, 10 μL) was added to each well to achieve working concentrations and incubated for 12 h. After incubation, wells were washed with PBS, added with 100 μL of DMEM and immediately irradiated with visible light using Max-303 Xenon Light Source (385-740 nm, Asahi Spectra) at different light intensities (5-50 mW) for 1 to 15 min. Following irradiation, cells were incubated overnight and then added with MTT (5 mg/mL in PBS, 10 μL). After 4 h incubation with MTT, media from each well was pipetted out, formazan crystals deposited on the plate were dissolved in 200 μL of Me2SO, and the absorbance of each well was measured using a microplate reader at 560 nm. All the samples were analyzed in quadruplicates.\nThe percentage cell viability was calculated using the following formula: % cell viability=(OD of treated sample/OD of untreated sample)*100."}, "A2780 cells [4]": {"test_system": "A2780 cells", "experiment": "Live cell confocal microscopy, cellular uptake and co-localization", "format": "cell-based, human", "details": "lysosomal uptake, control experiment", "method": "A2780 cells (1×10^5 cells/mL, 300 μL) were plated in each well of an 8-well μ-slide (ibidi cell focus) and cultured overnight. PBS solution of ExBox^4+⊃DPP was added to each well and incubated for predetermined time points. For cellular co-localization studies, cells were washed with phenol free DMEM and stained with LysoTracker green (lysosome stain, 1:1000 dilution) or MitoSpy™ Green FM (mitochondria stain, 1:2000 dilution) or NucBlue™ Live ReadyProbes™ Reagent (nuclei stain, 1 drop). For the live-dead assay, cells were incubated with PBS solution of ExBox^4+⊃DPP irradiated for 10 min at […] light intensity, incubated overnight, and stained with Calcein AM (2 μM) and Ethidium homodimer-1 (4 μM). Plated cells were imaged within a humidified chamber using a 63× oil-immersion objective on a SP5 Leica Confocal Microscope using HyD detectors and lasers."}, "[5]": {"details": "reference photosensitizer; cited from earlier work"}},
  "data": [
    {"smiles": "C1=Cc2nc1cc1ccc([nH]1)c(-c1ccccc1)c1nc(cc3ccc([nH]3)c2-c2ccccc2)C=C1", "note": "[DPP, 5,15-diphenylporphyrin]", "values": [
      {"measurement": "solubility in H2O", "setting": "[1]; H2O", "value": "insoluble"},
      {"measurement": "solubility in water and PBS buffer", "setting": "[1]; water and PBS buffer", "value": "insoluble"},
      {"measurement": "^1O2 quantum yield", "setting": "[2]; in acetone", "value": 0.43}
    ]},
    {"smiles": "C1=Cc2nc1cc1ccc([nH]1)c(-c1ccccc1)c1nc(cc3ccc([nH]3)c2-c2ccccc2)C=C1", "note": "[DPPH2^2+, reference compound]", "values": [
      {"measurement": "cells killed (PDT control experiment)", "setting": "A2780 cells [3]", "value": "~90", "unit": "%"},
      {"measurement": "^1O2 quantum yield", "setting": "[2]; in H2O", "value": 0.38},
      {"measurement": "cellular uptake compared with the complex (fluorescence intensity inside cells)", "setting": "A2780 cells [4]", "value": "less efficient"}
    ]},
    {"smiles": "CN(C)c1ccc2nc3ccc(=[N+](C)C)cc-3sc2c1", "note": "[methylene blue]", "values": [
      {"measurement": "^1O2 quantum yield of reference", "setting": "[5]", "value": 0.53}
    ]}
  ]
}
